Measurements from patent publication US20220227707A1, “COMPOUNDS AND COMPOSITIONS FOR TREATING CONDITIONS ASSOCIATED WITH NLRP ACTIVITY” (Novartis AG, priority 2019, published 2022).

Tested on: IL-1β production in PMA-differentiated THP-1 cells
Assay: IL-1β production in PMA-differentiated THP-1 cells stimulated with gramicidin (hTHP-1 assay)
Type: cell-based, human
Description: Procedure 1: IL-1β Production in PMA-Differentiated THP-1 Cells Stimulated with Gramicidin
THP-1 cells were purchased from the American Type Culture Collection and sub-cultured according to instructions from the supplier. Cells were cultured in complete RPMI 1640 (containing 10% heat inactivated FBS, penicillin (100 units/ml) and streptomycin (100 μg/ml)), and maintained in log phase prior to experimental setup. Prior to the experiment, compounds were dissolved in dimethyl sulfoxide (DMSO) to generate a 30 mM stock. The compound stock was first pre-diluted in DMSO to 3, 0.34, 0.042 and 0.0083 mM intermediate concentrations and subsequently spotted using Echo550 liquid handler into an empty 384-well assay plate to achieve desired final concentration (e.g. 100, 33, 11, 3.7, 1.2, 0.41, 0.14, 0.046, 0.015, 0.0051, 0.0017 μM). DMSO was backfilled in the plate to achieve a final DMSO assay concentration of 0.37%. The plate was then sealed and stored at room temperature until required.
THP-1 cells were treated with PMA (Phorbol 12-myristate 13-acetate) (20 ng/ml) for 16-18 hours. On the day of the experiment the media was removed and adherent cells were detached with trypsin for 5 minutes. Cells were then harvested, washed with complete RPMI 1640, spun down, and resuspended in RPMI 1640 (containing 2% heat inactivated FBS, penicillin (100 units/ml) and streptomycin (100 μg/ml). The cells were plated in the 384-well assay plate containing the spotted compounds at a density of 50,000 cells/well (final assay volume 50 μl). Cells were incubated with compounds for 1 hour and then stimulated with gramicidin (5 μM) (Enzo) for 2 hours. Plates were then centrifuged at 340 g for 5 min. Cell free supernatant ([…]) was collected using a 96-channel PlateMaster (Gilson) and the production of IL-1β was evaluated by HTRF (cisbio). The plates were incubated for 18 h at 4° C. and read using the preset HTRF program (donor emission at 620 nm, acceptor emission at 668 nm) of the SpectraMax i3x spectrophotometer (Molecular Devices, software SoftMax 6). A vehicle only control and a dose titration of CRID3 (100-0.0017 μM) were run concurrently with each experiment.
Procedure 2: […] Production in PMA-Differentiated THP-1 Cells Stimulated with Gramicidin
THP-1 cells were purchased from the American Type Culture Collection and sub-cultured according to instructions from the supplier. Prior to experiments, cells were cultured in complete RPMI 1640 (containing 10% heat inactivated FBS, penicillin (100 units/ml) and streptomycin (100 μg/ml)), and maintained in log phase prior to experimental setup. Prior to the experiment THP-1 were treated with PMA (Phorbol 12-myristate 13-acetate) (20 ng/ml) for 16-18 hours. Compounds were dissolved in dimethyl sulfoxide (DMSO) to generate a 30 mM stock. On the day of the experiment the media was removed and adherent cells were detached with trypsin for 5 minutes. Cells were then harvested, washed with complete RPMI 1640, spun down, resuspended in RPMI 1640 (containing 2% heat inactivated FBS, penicillin (100 units/ml) and streptomycin (100 μg/ml). The cells were plated in a 384-well plate at a density of 50,000 cells/well (final assay volume 50 μl). Compounds were first dissolved in assay medium to obtain a 5× top concentration of 500 μM. 10 step dilutions (1:3) were then undertaken in assay medium containing 1.67% DMSO. 5× compound solutions were added to the culture medium to achieve desired final concentration (e.g. 100, 33, 11, 3.7, 1.2, 0.41, 0.14, 0.046, 0.015, 0.0051, 0.0017 μM). Final DMSO concentration was at 0.37%. Cells were incubated with compounds for 1 hour and then stimulated with gramicidin (5 μM) (Enzo) for 2 hours. Plates were then centrifuged at 340 g for 5 min. Cell free supernatant (40 μL) was collected using a 96-channel PlateMaster (Gilson) and the production of IL-1β was evaluated by HTRF (cisbio). A vehicle only control and a dose titration of CRID3 (100-0.0017 μM) were run concurrently with each experiment. […]

[1] = Average IC50, hTHP-1 assay containing 2% fetal bovine serum, Table 10, class symbols
[2] = Homo sapiens, THP-1, Average IC50, hTHP-1 assay containing 2% fetal bovine serum, Table 10, numeric values
[3] = Homo sapiens, THP-1, Average IC50, hTHP-1 assay containing 2% fetal bovine serum, Table 10, class symbols
[4] = Average IC50, hTHP-1 assay containing 2% fetal bovine serum, Table 10, numeric values

CN(C)CCCS(N)(=O)=NC(=O)Nc1c2c(cc3c1CCC3)CCC2 (single isomer, unassigned) [Compound 142, 3-(dimethylamino)-N′-((1,2,3,5,6,7-hexahydro-s-indacen-4-yl)carbamoyl)propane-1-sulfonimidamide]
IC50 [1]: 1 to 5 µM

CN(C)CC1(S(N)(=O)=NC(=O)Nc2c3c(cc4c2CCC4)CCC3)CC1 (centres unmarked) [Compound 158]
IC50 [2]: > 30 µM

CC(C)c1cc(F)cc(C(C)C)c1CC(=O)N=S(N)(=O)C1CCCC1 (centres unmarked) [Compound 304]
IC50 [2]: > 30 µM

CN1CCC(CS(N)(=O)=NC(=O)Nc2c3c(cc4c2CCC4)CCC3)C1 (single isomer, unassigned) [Compound 114]
IC50 [3]: 5 to 30 µM

CC(CN(C)C)CS(N)(=O)=NC(=O)Nc1c2c(cc3c1CCC3)CCC2 (centres unmarked) [Compound 126, 3-(dimethylamino)-N′-((1,2,3,5,6,7-hexahydro-s-indacen-4-yl)carbamoyl)-2-methylpropane-1-sulfonimidamide]
IC50 [2]: > 30 µM

CC(CCc1ccccc1)S(N)(=O)=NC(=O)Nc1c2c(cc3c1CCC3)CCC2 (centres unmarked) [Compound 109]
IC50 [3]: 5 to 30 µM

CC(C)(O)c1ccc(CS(N)(=O)=NC(=O)Nc2c3c(cc4c2CCC4)CCC3)cc1 (single isomer, unassigned) [Compound 165b]
IC50 [1]: 0.04 to 0.2 µM

CN1CCC(CS(N)(=O)=NC(=O)Nc2c3c(cc4c2CCC4)CCC3)C1 (single isomer, unassigned) [Compound 113]
IC50 [2]: > 30 µM

CC(C)(O)c1ccc(CS(N)(=O)=NC(=O)Nc2c3c(cc4c2CCC4)CCC3)cc1 (centres unmarked) [Compound 165, N′-((1,2,3,5,6,7-hexahydro-s-indacen-4-yl)carbamoyl)-1-(4-(2-hydroxypropan-2-yl)phenyl)methane-sulfonimidamide]
IC50 [3]: 0.2 to 1 µM

CN(C)S(C)(=O)=NC(=O)Nc1c2c(cc3c1CCC3)CCC2 (single isomer, unassigned) [Compound 102, N′-((1,2,3,5,6,7-hexahydro-s-indacen-4-yl)carbamoyl)-N,N-dimethylmethanesulfonimidamide]
IC50 [4]: > 30 µM

CC(C)c1cc(F)cc(C(C)C)c1CC(=O)NS(=O)(=O)Cc1cccc(C(=O)O)c1 [Compound 510]
IC50 [2]: > 100 µM

CN(C)CCCS(N)(=O)=NC(=O)Nc1c2c(cc3c1CCC3)CCC2 (single isomer, unassigned) [Compound 143, 3-(dimethylamino)-N′-((1,2,3,5,6,7-hexahydro-s-indacen-4-yl)carbamoyl)propane-1-sulfonimidamide]
IC50 [1]: 5 to 30 µM

CC(C)c1cc(F)cc(C(C)C)c1CC(=O)NS(=O)(=O)Cc1cnn(C)c1 [Compound 528]
IC50 [2]: > 30 µM

CC(C)c1cc(F)cc(C(C)C)c1CC(=O)N=S(N)(=O)C1CC1 (centres unmarked) [Compound 309]
IC50 [4]: > 30 µM

CC(CN(C)C)CS(N)(=O)=NC(=O)Nc1c2c(cc3c1CCC3)CCC2 (single isomer, unassigned) [Compound 127, 3-(dimethylamino)-N′-((1,2,3,5,6,7-hexahydro-s-indacen-4-yl)carbamoyl)-2-methylpropane-1-sulfonimidamide]
IC50 [4]: > 30 µM

CN1CCC(CS(N)(=O)=NC(=O)Nc2c3c(cc4c2CCC4)CCC3)C1 (centres unmarked) [Compound 112, N′-((1,2,3,5,6,7-hexahydro-s-indacen-4-yl)carbamoy1)-1-(1-methylpyrrolidin-3-yl) methane-sulfonimidamide]
IC50 [3]: 1 to 5 µM

CC(C)c1cc(F)cc(C(C)C)c1CC(=O)N=S(N)(=O)C1CCCC1 (centres unmarked) [Compound 306]
IC50 [4]: > 30 µM

CN(C)S(C)(=O)=NC(=O)Nc1c2c(cc3c1CCC3)CCC2 (single isomer, unassigned) [Compound 101, N′-((1,2,3,5,6,7-hexahydro-s-indacen-4-yl)carbamoyl)-N,N-dimethylmethanesulfonimidamide]
IC50 [2]: > 30 µM

CN(C)Cc1cccc(CS(N)(=O)=NC(=O)Nc2c3c(cc4c2CCC4)CCC3)c1 (centres unmarked) [Compound 164, 1-(3-((dimethylamino)methyl)pheny1)-N′-((1,2,3,5,6,7-hexahydro-s-indacen-4-yl)carbamoyl) methane-sulfonimidamide]
IC50 [3]: 5 to 30 µM

CC(C)c1cc(F)cc(C(C)C)c1CC(=O)NS(=O)(=O)CCCC(=O)O [Compound 512]
IC50 [2]: > 100 µM
